# Source: US9938273B2 (Plexxikon Inc., priority 2015, dated 2018)
# pIC50: −log10 of the molar value.
# Key:
# FLT3-D835Y = biological target: T1, FLT3-D835Y (Homo sapiens, UniProt P36888, D835Y); assay: AlphaScreen kinase assay with recombinant enzyme, FLT3-D835Y; format: biochemical; details: 8pt, GMean
# T1 construct: purchased Invitrogen PV3967
# T1 sequence (P36888 27-993 D835Y): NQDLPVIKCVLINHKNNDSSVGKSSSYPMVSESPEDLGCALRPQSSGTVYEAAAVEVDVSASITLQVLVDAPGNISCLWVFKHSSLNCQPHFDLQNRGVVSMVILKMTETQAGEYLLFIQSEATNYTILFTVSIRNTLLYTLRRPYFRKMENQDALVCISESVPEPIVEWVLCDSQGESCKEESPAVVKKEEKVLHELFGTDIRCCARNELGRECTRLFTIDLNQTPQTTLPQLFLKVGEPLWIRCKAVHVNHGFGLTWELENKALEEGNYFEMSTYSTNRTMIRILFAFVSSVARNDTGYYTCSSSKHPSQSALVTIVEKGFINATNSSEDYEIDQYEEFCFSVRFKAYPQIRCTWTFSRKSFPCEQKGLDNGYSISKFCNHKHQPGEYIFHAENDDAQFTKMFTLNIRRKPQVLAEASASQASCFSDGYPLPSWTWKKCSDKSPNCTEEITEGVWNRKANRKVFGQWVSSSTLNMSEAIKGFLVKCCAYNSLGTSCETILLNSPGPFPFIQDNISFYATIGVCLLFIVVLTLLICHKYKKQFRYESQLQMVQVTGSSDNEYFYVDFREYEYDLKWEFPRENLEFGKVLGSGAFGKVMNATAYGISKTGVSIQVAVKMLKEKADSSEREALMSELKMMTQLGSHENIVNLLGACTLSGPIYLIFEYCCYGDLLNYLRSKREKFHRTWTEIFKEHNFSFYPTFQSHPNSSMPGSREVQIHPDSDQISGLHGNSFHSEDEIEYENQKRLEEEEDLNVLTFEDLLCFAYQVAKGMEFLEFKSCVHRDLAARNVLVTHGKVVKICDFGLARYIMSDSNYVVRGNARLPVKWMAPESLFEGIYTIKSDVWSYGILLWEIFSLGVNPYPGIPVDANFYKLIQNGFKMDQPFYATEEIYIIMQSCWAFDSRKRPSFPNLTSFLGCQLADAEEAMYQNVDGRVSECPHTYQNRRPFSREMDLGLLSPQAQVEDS
# Summary of the method: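 Inhibition was measured as a drop in AlphaScreen signal arising from phosphotyrosine-bead capture of a biotinylated poly(Glu4-Tyr) peptide (30 nM) phosphorylated by recombinant kinase. For IC50 work the stated final concentration was 10 μM for the FLT3 mutants and 100 μM for c-KIT.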
# [1] = test system: MOLM-14 D835Y cells, FLT3 ITD and FLT3 D835Y; assay: Cell proliferation assay (CellTiter-Glo), MOLM-14 D835Y; format: cell-based; details: Homo sapiens, 72 h, 3d-Growth, GMean
# Summary of the method: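 MOLM-14 AML cells (endogenous FLT3 ITD, AC220-selected D835Y or F691L variants) or murine Ba/F3 expressing full-length FLT3 ITD/D835Y, without IL-3 for FLT3 dependence, 1×10^4 cells/well. Eight-point 1:3 series from 1 μM final, 0.2% DMSO, 3 days at 37 °C. CellTiter-Glo luminescence (ATP) gave IC50.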
Structure (SMILES),pIC50 (FLT3-D835Y),pIC50 [1]
"O=S(=O)(NC1CC1)c1cccc(-c2cnc3[nH]c(C#CC4CCCCC4)cc3c2)c1 [Compound P-0010, 3-[2-(2-cyclohexylethynyl)-1H-pyrrolo[2,3-b]pyridin-5-yl]-N-cyclopropyl-benzenesulfonamide]",4.00 to 4.30,–
"O=S(=O)(NC1CC1)c1cccc(-c2cnc3[nH]c(C#Cc4ccccc4)cc3c2)c1 [Compound P-0014, N-cyclopropyl-3-[2-(2-phenylethynyl)-1H-pyrrolo[2,3-b]pyridin-5-yl]benzenesulfonamide]",4.00 to 4.30,–
"CC(C)Oc1ncc(-c2cc3cc(-c4cccc(C(=O)NC(C)(C)C#N)n4)cnc3[nH]2)cn1 [Compound P-0191, N-(1-cyano-1-methyl-ethyl)-6-[2-(2-isopropoxypyrimidin-5-yl)-1H-pyrrolo[2,3-b]pyridin-5-yl]pyridine-2-carboxamide]",5.00 to 10.00,5.00 to 10.00
Cc1nn(C(C)C)cc1-c1[nH]c2ncc(-c3cccc(C(=O)NC(C)(C)C#N)n3)cc2c1Cl [Compound P-0192],5.00 to 10.00,5.00 to 10.00
"CC(C)(C#N)NC(=O)c1cccc(-c2cnc3[nH]c(-c4cnn(CC(F)(F)F)c4)cc3c2)n1 [Compound P-0193, N-(1-cyano-1-methyl-ethyl)-6-[2-[1-(2,2,2-trifluoroethyl)pyrazol-4-yl]-1H-pyrrolo[2,3-b]pyridin-5-yl]pyridine-2-carboxamide]",5.00 to 10.00,5.00 to 10.00
"CC(C)(C#N)NC(=O)c1cccc(-c2cnc3[nH]c(-c4ccc(C5(C#N)CC5)cc4)cc3c2)n1 [Compound P-0194, 6-[2-[4-(1-cyanocyclopropyl)phenyl]-1H-pyrrolo[2,3-b]pyridin-5-yl]-N-(1-cyano-1-methyl-ethyl)pyridine-2-carboxamide]",5.00 to 10.00,5.00 to 10.00
"CC(C)(C#N)NC(=O)c1cccc(-c2cnc3[nH]c(-c4cncnc4)cc3c2)n1 [Compound P-0195, N-(1-cyano-1-methyl-ethyl)-6-(2-pyrimidin-5-yl-1H-pyrrolo[2,3-b]pyridin-5-yl)pyridine-2-carboxamide]",5.00 to 10.00,5.00 to 10.00
"COc1ncc(-c2cc3cc(-c4cccc(C(=O)NC(C)(C)C#N)n4)cnc3[nH]2)cn1 [Compound P-0196, N-(1-cyano-1-methyl-ethyl)-6-[2-(2-methoxypyrimidin-5-yl)-1H-pyrrolo[2,3-b]pyridin-5-yl]pyridine-2-carboxamide]",5.00 to 10.00,5.00 to 10.00
"CC(C)(C#N)NC(=O)c1cccc(-c2cnc3[nH]c(-c4ccc(N5CCOCC5)nc4)cc3c2)n1 [Compound P-0197, N-(1-cyano-1-methyl-ethyl)-6-[2-(6-morpholino-3-pyridyl)-1H-pyrrolo[2,3-b]pyridin-5-yl]pyridine-2-carboxamide]",5.00 to 10.00,5.00 to 10.00
"CC(C)(C#N)NC(=O)c1cccc(-c2cnc3[nH]c(-c4cnc(N5CCOCC5)nc4)cc3c2)n1 [Compound P-0198, N-(1-cyano-1-methyl-ethyl)-6-[2-(2-morpholinopyrimidin-5-yl)-1H-pyrrolo[2,3-b]pyridin-5-yl]pyridine-2-carboxamide]",5.00 to 10.00,5.00 to 10.00
"CC(C)(C#N)NC(=O)c1cccc(-c2cnc3[nH]c(-c4cccc(N5CCCS5(=O)=O)c4)cc3c2)n1 [Compound P-0199, N-(1-cyano-1-methyl-ethyl)-6-[2-[3-(1,1-dioxo-1,2-thiazolidin-2-yl)phenyl]-1H-pyrrolo[2,3-b]pyridin-5-yl]pyridine-2-carboxamide]",5.00 to 10.00,5.00 to 10.00
"CC(C)(NC(=O)c1cccc(-c2cnc3[nH]c(-c4cnn(C5CCNCC5)c4)cc3c2)n1)C(N)=O [Compound P-0200, N-(2-amino-1,1-dimethyl-2-oxo-ethyl)-6-[2-[1-(4-piperidyl)pyrazol-4-yl]-1H-pyrrolo[2,3-b]pyridin-5-yl]pyridine-2-carboxamide]",5.00 to 10.00,5.00 to 10.00
"CC(C)(C#N)NC(=O)c1cccc(-c2cnc3[nH]c(-c4cnc(N5CCCC5)nc4)cc3c2)n1 [Compound P-0202, N-(1-cyano-1-methyl-ethyl)-6-[2-(2-pyrrolidin-1-ylpyrimidin-5-yl)-1H-pyrrolo[2,3-b]pyridin-5-yl]pyridine-2-carboxamide]",5.00 to 10.00,5.00 to 10.00

# Now from value to compound:
pIC50 (FLT3-D835Y),pIC50 [1],Structure (SMILES)
5.00 to 10.00,–,"O=S(=O)(NC1CC1)c1cccc(-c2cnc3[nH]c(C#CCO)cc3c2)c1 [Compound P-0008, N-cyclopropyl-3-[2-(3-hydroxyprop-1-ynyl)-1H-pyrrolo[2,3-b]pyridin-5-yl]benzenesulfonamide]"
5.00 to 10.00,–,"CN(C)CC#Cc1cc2cc(-c3cccc(S(=O)(=O)NC4CC4)c3)cnc2[nH]1 [Compound P-0009, N-cyclopropyl-3-[2-[3-(dimethylamino)prop-1-ynyl]-1H-pyrrolo[2,3-b]pyridin-5-yl]benzenesulfonamide]"
5.00 to 10.00,–,"CC(C)(C)OC(=O)NC1CCN(C(=O)c2n[nH]c3ccc(-c4cnc5[nH]c(-c6ccccc6)cc5c4)cc23)CC1 [Compound P-0011, tert-butyl N-[1-[5-(2-phenyl-1H-pyrrolo[2,3-b]pyridin-5-yl)-1H-indazole-3-carbonyl]-4-piperidyl]carbamate]"
5.00 to 10.00,5.00 to 10.00,"CN1CC(NC(=O)c2cccc(-c3cnc4[nH]c(-c5ccccc5)cc4c3)n2)C1 [Compound P-0075, N-(1-methylazetidin-3-yl)-6-(2-phenyl-1H-pyrrolo[2,3-b]pyridin-5-yl)pyridine-2-carboxamide]"
5.00 to 10.00,5.00 to 10.00,"NC1(C(F)(F)F)CCN(C(=O)c2cccc(-c3cnc4[nH]c(-c5ccccc5)cc4c3)n2)C1 (centres unmarked) [Compound P-0077, [3-amino-3-(trifluoromethyl)pyrrolidin-1-yl]-[6-(2-phenyl-1H-pyrrolo[2,3-b]pyridin-5-yl)-2-pyridyl]methanone]"
5.00 to 10.00,5.00 to 10.00,"CC1(N)CCN(C(=O)c2cccc(-c3cnc4[nH]c(-c5ccccc5)cc4c3)n2)C1 (centres unmarked) [Compound P-0078, (3-amino-3-methyl-pyrrolidin-1-yl)-[6-(2-phenyl-1H-pyrrolo[2,3-b]pyridin-5-yl)-2-pyridyl]methanone]"
5.00 to 10.00,5.00 to 10.00,"CNCC1CCN(C(=O)c2cccc(-c3cnc4[nH]c(-c5ccccc5)cc4c3)n2)C1 (centres unmarked) [Compound P-0079, [3-(methylaminomethyl)pyrrolidin-1-yl]-[6-(2-phenyl-1H-pyrrolo[2,3-b]pyridin-5-yl)-2-pyridyl]methanone]"
5.00 to 10.00,–,"CC(C)(C#N)NC(=O)c1cccc(-c2cnc3[nH]c(-c4cscn4)cc3c2)n1 [Compound P-0167, N-(1-cyano-1-methyl-ethyl)-6-(2-thiazol-4-yl-1H-pyrrolo[2,3-b]pyridin-5-yl)pyridine-2-carboxamide]"
5.00 to 10.00,–,"CC(C)(C#N)NC(=O)c1cccc(-c2cnc3[nH]c(-c4cnn(C(=O)C5CC5)c4)cc3c2)n1 [Compound P-0184, N-(1-cyano-1-methyl-ethyl)-6-[2-[1-(cyclopropanecarbonyl)pyrazol-4-yl]-1H-pyrrolo[2,3-b]pyridin-5-yl]pyridine-2-carboxamide]"
5.00 to 10.00,–,"CC(C)(C#N)NC(=O)c1cccc(-c2cnc3[nH]c(-c4cnn(C(F)F)c4)c(Cl)c3c2)n1 [Compound P-0185, 6-[3-chloro-2-[1-(difluoromethyl)pyrazol-4-yl]-1H-pyrrolo[2,3-b]pyridin-5-yl]-N-(1-cyano-1-methyl-ethyl)pyridine-2-carboxamide]"
5.00 to 10.00,–,"CC(C)(C#N)NC(=O)c1cccc(-c2cnc3[nH]c(C4=CCS(=O)(=O)CC4)cc3c2)n1 [Compound P-0186, N-(1-cyano-1-methyl-ethyl)-6-[2-(1,1-dioxo-3,6-dihydro-2H-thiopyran-4-yl)-1H-pyrrolo[2,3-b]pyridin-5-yl]pyridine-2-carboxamide]"
5.00 to 10.00,5.00 to 10.00,"CC(C)Oc1ccc(-c2cc3cc(-c4cccc(C(=O)NC(C)(C)C#N)n4)cnc3[nH]2)cn1 [Compound P-0190, N-(1-cyano-1-methyl-ethyl)-6-[2-(6-isopropoxy-3-pyridyl)-1H-pyrrolo[2,3-b]pyridin-5-yl]pyridine-2-carboxamide]"
